Data as given in paper PMC4008608, “The Tertiary Origin of the Allosteric Activation of E. coli Glucosamine-6-Phosphate Deaminase Studied by Sol-Gel Nanoencapsulation of Its T Conformer” (PLoS ONE, 2014).

Tests used:
[1] = target: T1, EcGNPDA (glucosamine-6-phosphate deaminase from Escherichia coli) (Escherichia coli, UniProt P0A759, C118S/D165C/S206W/C228S/C239S); experiment: initial velocity fitted to MWC equation; assay type: biochemical; conditions: mutant F, soluble enzyme; MWC R-state substrate dissociation constant (stronger state) from velocity data; cooperative; read-out: K R ^a
T1 construct: gene nagB; full-length homohexamer; plasmid pTZ18RnagB in E. coli IBPC590 Δnag (stated for the mutant); encapsulated in silica sol-gel in T quaternary conformation (mutant F also in solution)
Source text: initial velocity fitted to MWC equation on […] (glucosamine-6-phosphate deaminase from Escherichia coli)

[2] = target: T2, EcGNPDA (glucosamine-6-phosphate deaminase from Escherichia coli) (Escherichia coli, UniProt P0A759); experiment: near-UV circular dichroism of enzyme-doped gels, […] nm; assay type: binding; conditions: allosteric activator, 1 mM; ligand-free R-state gel; 100 mM Tris-HCl pH 7.7, 30°C
T2 construct: gene nagB; full-length homohexamer; plasmid pTZ18RnagB in E. coli IBPC590 Δnag (stated for the mutant); encapsulated in silica sol-gel in T quaternary conformation (mutant F also in solution)

| SMILES | Kd [1] [µM] | near-UV circular dichroism of enzyme-doped gels, 274 nm [2] |
| --- | --- | --- |
| N[C@H]1C(O)O[C@H](COP(=O)(O)O)[C@@H](O)[C@@H]1O (some centres unmarked) [GlcN6P] | 440 ± 10 |  |
| CC(=O)N[C@H]1C(O)O[C@H](COP(=O)(O)O)[C@@H](O)[C@@H]1O (some centres unmarked) [GlcNAc6P] |  | Only the enzyme in the R state when in presence of the activator, displays |
